Results reported in PubChem BioAssay (NCI).
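Each compound was tested at five concentrations against cells in 96-well plates for 48 hours. TGI denotes the concentration required for complete inhibition of growth.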

How the values were obtained:
Experiment in all cases: NCI-60 cell line screen, 48 h
786-0 renal = test system: 786-0 renal
UO-31 renal = test system: UO-31 renal
HT29 colon = test system: HT29 colon
UACC-257 melanoma = test system: UACC-257 melanoma
HL-60(TB) leukemia = test system: HL-60(TB) leukemia
CCRF-CEM leukemia = test system: CCRF-CEM leukemia
OVCAR-4 ovarian = test system: OVCAR-4 ovarian
UACC-62 melanoma = test system: UACC-62 melanoma
SK-MEL-28 melanoma = test system: SK-MEL-28 melanoma
OVCAR-8 ovarian = test system: OVCAR-8 ovarian
CAKI-1 renal = test system: CAKI-1 renal
NCI-H226 lung = test system: NCI-H226 lung
NCI/ADR-RES ovarian = test system: NCI/ADR-RES ovarian
HCT-116 colon = test system: HCT-116 colon
OVCAR-3 ovarian = test system: OVCAR-3 ovarian
NCI-H23 lung = test system: NCI-H23 lung
MDA-N = test system: MDA-N
RXF 393 renal = test system: RXF 393 renal
MDA-MB-231 breast = test system: MDA-MB-231 breast
MALME-3M melanoma = test system: MALME-3M melanoma
OVCAR-5 ovarian = test system: OVCAR-5 ovarian
SW-620 colon = test system: SW-620 colon
SN12C renal = test system: SN12C renal
BT-549 breast = test system: BT-549 breast
SNB-75 CNS = test system: SNB-75 CNS
SK-MEL-5 melanoma = test system: SK-MEL-5 melanoma
M14 melanoma = test system: M14 melanoma
MCF7 breast = test system: MCF7 breast
SF-295 CNS = test system: SF-295 CNS
PC-3 prostate = test system: PC-3 prostate
TK-10 renal = test system: TK-10 renal
A498 renal = test system: A498 renal
A549 NSCLC = test system: A549 NSCLC
HS 578T breast = test system: HS 578T breast
U251 CNS = test system: U251 CNS
RPMI-8226 leukemia = test system: RPMI-8226 leukemia
SF-539 CNS = test system: SF-539 CNS
SK-MEL-2 melanoma = test system: SK-MEL-2 melanoma
LOX IMVI melanoma = test system: LOX IMVI melanoma
NCI-H522 lung = test system: NCI-H522 lung
HOP-62 NSCLC = test system: HOP-62 NSCLC
SR leukemia = test system: SR leukemia
SK-OV-3 ovarian = test system: SK-OV-3 ovarian
IGROV1 ovarian = test system: IGROV1 ovarian
SF-268 CNS = test system: SF-268 CNS
MDA-MB-435 = test system: MDA-MB-435
HOP-92 NSCLC = test system: HOP-92 NSCLC
COLO 205 colon = test system: COLO 205 colon
MOLT-4 leukemia = test system: MOLT-4 leukemia
HCC-2998 colon = test system: HCC-2998 colon
HCT-15 colon = test system: HCT-15 colon
KM12 colon = test system: KM12 colon
DU-145 prostate = test system: DU-145 prostate
EKVX NSCLC = test system: EKVX NSCLC
T-47D breast = test system: T-47D breast
K-562 leukemia = test system: K-562 leukemia
SNB-19 CNS = test system: SNB-19 CNS
ACHN renal = test system: ACHN renal
NCI-H460 lung = test system: NCI-H460 lung

Structure (SMILES): Cc1sccc1C(=S)Nc1ccc(Cl)c(/C=N/OC(C)(C)C)c1
- TGI (786-0 renal): 49.4 µM
- TGI (UO-31 renal): 25 µM
- TGI (HT29 colon): 27.6 µM
- TGI (UACC-257 melanoma): 35.1 µM
- TGI (HL-60(TB) leukemia): 38.6 µM
- TGI (CCRF-CEM leukemia): > 100 µM
- TGI (OVCAR-4 ovarian): 32 µM
- TGI (UACC-62 melanoma): 34.2 µM
- TGI (SK-MEL-28 melanoma): 71 µM
- TGI (OVCAR-8 ovarian): 34.1 µM
- TGI (CAKI-1 renal): 24.4 µM
- TGI (NCI-H226 lung): 29.3 µM
- TGI (NCI/ADR-RES ovarian): 45.1 µM
- TGI (HCT-116 colon): > 100 µM
- TGI (OVCAR-3 ovarian): 26.8 µM
- TGI (NCI-H23 lung): 34.5 µM
- TGI (MDA-N): 26.9 µM
- TGI (RXF 393 renal): 39 µM
- TGI (MDA-MB-231 breast): 27 µM
- TGI (MALME-3M melanoma): 31.1 µM
- TGI (OVCAR-5 ovarian): 34.7 µM
- TGI (SW-620 colon): > 100 µM
- TGI (SN12C renal): 25.6 µM
- TGI (BT-549 breast): 35.2 µM
- TGI (SNB-75 CNS): > 100 µM
- TGI (SK-MEL-5 melanoma): 25.9 µM
- TGI (M14 melanoma): 33.9 µM
- TGI (MCF7 breast): 26.7 µM
- TGI (SF-295 CNS): 37.3 µM
- TGI (PC-3 prostate): 32.5 µM
- TGI (TK-10 renal): 36.9 µM
- TGI (A498 renal): 46.8 µM
- TGI (A549 NSCLC): 63.5 µM
- TGI (HS 578T breast): 62.3 µM
- TGI (U251 CNS): 62.1 µM
- TGI (RPMI-8226 leukemia): 27 µM
- TGI (SF-539 CNS): > 100 µM
- TGI (SK-MEL-2 melanoma): 28.8 µM
- TGI (LOX IMVI melanoma): 73.9 µM
- TGI (NCI-H522 lung): 26.5 µM
- TGI (HOP-62 NSCLC): 30.6 µM
- TGI (SR leukemia): 54.7 µM
- TGI (SK-OV-3 ovarian): 79.3 µM
- TGI (IGROV1 ovarian): 29.4 µM
- TGI (SF-268 CNS): 43.9 µM
- TGI (MDA-MB-435): 50.9 µM
- TGI (HOP-92 NSCLC): 35.3 µM
- TGI (COLO 205 colon): 27.3 µM
- TGI (MOLT-4 leukemia): 30.7 µM
- TGI (HCC-2998 colon): 30 µM
- TGI (HCT-15 colon): 29 µM
- TGI (KM12 colon): 28.8 µM
- TGI (DU-145 prostate): 29 µM
- TGI (EKVX NSCLC): 42.4 µM
- TGI (T-47D breast): 22.8 µM

Structure (SMILES): C/C(=N\NC(=S)NCCNC(=S)N/N=C(\C)c1ccccn1)c1ccccn1
- TGI (786-0 renal): 6.05 µM
- TGI (UO-31 renal): > 100 µM
- TGI (HT29 colon): > 100 µM
- TGI (UACC-257 melanoma): 22.3 µM
- TGI (HL-60(TB) leukemia): > 22.6 µM
- TGI (CCRF-CEM leukemia): > 26.1 µM
- TGI (OVCAR-4 ovarian): > 71.2 µM
- TGI (UACC-62 melanoma): 11.7 µM
- TGI (SK-MEL-28 melanoma): > 100 µM
- TGI (OVCAR-8 ovarian): > 100 µM
- TGI (CAKI-1 renal): > 89.7 µM
- TGI (NCI-H226 lung): > 26.9 µM
- TGI (NCI/ADR-RES ovarian): 6.06 µM
- TGI (HCT-116 colon): 31.4 µM
- TGI (OVCAR-3 ovarian): > 100 µM
- TGI (NCI-H23 lung): > 63.8 µM
- TGI (MDA-N): > 100 µM
- TGI (RXF 393 renal): > 100 µM
- TGI (MDA-MB-231 breast): > 70.9 µM
- TGI (MALME-3M melanoma): > 78.8 µM
- TGI (K-562 leukemia): > 100 µM
- TGI (OVCAR-5 ovarian): > 100 µM
- TGI (SW-620 colon): > 100 µM
- TGI (SN12C renal): 7.31 µM
- TGI (BT-549 breast): 47.8 µM
- TGI (SNB-75 CNS): 11.2 µM
- TGI (M14 melanoma): 4.27 µM
- TGI (MCF7 breast): > 100 µM
- TGI (SF-295 CNS): > 100 µM
- TGI (PC-3 prostate): > 100 µM
- TGI (TK-10 renal): > 30 µM
- TGI (A498 renal): 37.5 µM
- TGI (A549 NSCLC): > 100 µM
- TGI (HS 578T breast): > 100 µM
- TGI (U251 CNS): > 48.6 µM
- TGI (RPMI-8226 leukemia): 9.67 µM
- TGI (SNB-19 CNS): > 100 µM
- TGI (SF-539 CNS): 6.63 µM
- TGI (SK-MEL-2 melanoma): > 100 µM
- TGI (LOX IMVI melanoma): 30.9 µM
- TGI (NCI-H522 lung): > 100 µM
- TGI (HOP-62 NSCLC): 12.5 µM
- TGI (SR leukemia): 2.53 µM
- TGI (SK-OV-3 ovarian): > 100 µM
- TGI (IGROV1 ovarian): > 31.5 µM
- TGI (SF-268 CNS): 49 µM
- TGI (MDA-MB-435): > 100 µM
- TGI (HOP-92 NSCLC): > 100 µM
- TGI (COLO 205 colon): > 29.2 µM
- TGI (MOLT-4 leukemia): > 26 µM
- TGI (ACHN renal): > 28.5 µM
- TGI (HCC-2998 colon): > 100 µM
- TGI (HCT-15 colon): > 25.9 µM
- TGI (NCI-H460 lung): > 20.2 µM
- TGI (KM12 colon): > 100 µM
- TGI (DU-145 prostate): > 100 µM
- TGI (EKVX NSCLC): > 100 µM
- TGI (T-47D breast): > 29.3 µM

Structure (SMILES): COc1cc2c(cc1OC)C(=O)/C(=C/c1ccccc1)CC2
- TGI (786-0 renal): > 100 µM
- TGI (UO-31 renal): > 100 µM
- TGI (HT29 colon): 46.2 µM
- TGI (UACC-257 melanoma): > 100 µM
- TGI (HL-60(TB) leukemia): 17.2 µM
- TGI (CCRF-CEM leukemia): > 100 µM
- TGI (OVCAR-4 ovarian): > 100 µM
- TGI (SK-MEL-28 melanoma): > 100 µM
- TGI (OVCAR-8 ovarian): > 100 µM
- TGI (CAKI-1 renal): 48.3 µM
- TGI (NCI-H226 lung): 74.6 µM
- TGI (NCI/ADR-RES ovarian): 70 µM
- TGI (HCT-116 colon): > 100 µM
- TGI (OVCAR-3 ovarian): > 100 µM
- TGI (NCI-H23 lung): > 100 µM
- TGI (MDA-N): > 100 µM
- TGI (RXF 393 renal): > 100 µM
- TGI (MDA-MB-231 breast): > 100 µM
- TGI (MALME-3M melanoma): > 100 µM
- TGI (K-562 leukemia): > 100 µM
- TGI (OVCAR-5 ovarian): > 100 µM
- TGI (SW-620 colon): > 100 µM
- TGI (SN12C renal): > 100 µM
- TGI (BT-549 breast): 74.1 µM
- TGI (SNB-75 CNS): > 100 µM
- TGI (SK-MEL-5 melanoma): 35.2 µM
- TGI (M14 melanoma): > 100 µM
- TGI (MCF7 breast): > 100 µM
- TGI (SF-295 CNS): 41.1 µM
- TGI (PC-3 prostate): > 100 µM
- TGI (TK-10 renal): > 100 µM
- TGI (A498 renal): 44.8 µM
- TGI (A549 NSCLC): > 100 µM
- TGI (HS 578T breast): > 100 µM
- TGI (U251 CNS): > 100 µM
- TGI (RPMI-8226 leukemia): > 100 µM
- TGI (SNB-19 CNS): > 100 µM
- TGI (SF-539 CNS): > 100 µM
- TGI (SK-MEL-2 melanoma): 29.8 µM
- TGI (LOX IMVI melanoma): > 100 µM
- TGI (NCI-H522 lung): > 100 µM
- TGI (HOP-62 NSCLC): > 100 µM
- TGI (SR leukemia): > 100 µM
- TGI (SK-OV-3 ovarian): 97.5 µM
- TGI (IGROV1 ovarian): > 100 µM
- TGI (SF-268 CNS): > 100 µM
- TGI (MDA-MB-435): > 100 µM
- TGI (HOP-92 NSCLC): 67.3 µM
- TGI (COLO 205 colon): 38.8 µM
- TGI (MOLT-4 leukemia): 71.2 µM
- TGI (ACHN renal): > 100 µM
- TGI (HCC-2998 colon): 54.9 µM
- TGI (HCT-15 colon): 50.3 µM
- TGI (NCI-H460 lung): > 100 µM
- TGI (KM12 colon): 35.5 µM
- TGI (DU-145 prostate): > 100 µM
- TGI (EKVX NSCLC): > 100 µM
- TGI (T-47D breast): > 100 µM
